What was measured:
[1] = system: passive cutaneous anaphylactic reaction; assay: Passive cutaneous anaphylactic reaction test in rats (intravenous); assay type: in vivo; conditions: relative to reference compound RCA (= 1)
Description: A.1. Passive cutaneous anaphylactic reaction test in rats (intravenous)

[2] = Acute intravenous toxicity in mice; conditions: mouse, in vivo, triethanolamine salt, aqueous solution, observed 7 days
Description: T.2. Acute intravenous toxicity in mice
Mice were each treated intravenously with an aqueous solution of the triethanolamine salt of one of the compounds of formula IV, and they were observed during the next 7 days. The LD50 figures obtained (doses lethal to 50% of mice tested) are shown below in Table III, expressed in mg/kg animal body weight.
The aqueous solutions used were prepared as follows:- A mixture of the test compound and water was treated gradually with triethanolamine until complete solution occurred. The solution was then diluted with water to a concentration of either 1% w/v or 2% w/v. Various volumes of these solutions were then administered to the mice.

beagle dogs = assay: Emetic activity in dogs; assay type: in vivo; conditions: four beagle dogs, oral gelatine capsules, observed at least 2.5 hours
Description: The emetic activity in dogs of test compound A was compared with that of the reference compound RCA.
Four beagle dogs, each of approximately 12 kg body weight, were starved overnight and then were given orally gelatine capsules containing either test compound A or RCA.
The same four animals were used to test both compounds.

[3] = system: passive cutaneous anaphylactic reaction; assay: Passive cutaneous anaphylactic reaction test in rats (oral); assay type: in vivo; conditions: for oral activity relative to reference compounds RCB and RCC: times as active as RCB and RCC
Description: A.2. Passive cutaneous anaphylactic reaction test in rats (oral)

[4] = Acute oral toxicity in mice; conditions: mouse, in vivo, observed 3 days
Description: T.1. Acute oral toxicity in mice
Mice were each treated orally with one of the compounds of formula IV, and they were observed during the next 3 days. The LD50 figures obtained (doses lethal to 50% of mice tested) are shown in Table II, expressed in mg/kg animal body weight.

Compound	Relative Activity [1]	also measured
CCCOc1ccc(NC=C(C(=O)OC)C(=O)OC)cc1-c1nc2[nH]nnc2c(=O)[nH]1 [Compound G, 2-[5-{2,2-bis(methoxycarbonyl)vinylamino}-2-propoxyphenyl]-8-azapurin-6-one]	50	LD50 at 168 h ([2]; test solution 2% w/v): 280 mg/kg
CCCOc1ccccc1-c1nc2nn[nH]c2c(=O)[nH]1 [RCA, 2-(2-propoxyphenyl)-8-azapurin-6-one, reference compound]	1	vomiting (emetic activity) (beagle dogs; 100 mg/kg): caused vomiting in all four dogs
CCCOc1ccc(NC2=C(C(=O)OCC)CCC2)cc1-c1nc2[nH]nnc2c(=O)[nH]1 [Compound U, 2-[5-(2-ethoxycarbonylcyclopent-1-enylamino)-2-propoxyphenyl]-8-azapurin-6-one]	5	LD50 at 168 h ([2]; test solution 2% w/v): 220 mg/kg
CCCOc1ccc(NC(N)=O)cc1-c1nc2[nH]nnc2c(=O)[nH]1 [Compound S, 2-(2-propoxy-5-ureidophenyl)-8-azapurin-6-one]	5	–
CCCOc1ccc(S(=O)(=O)N(C)C(C)C)cc1-c1nc2[nH]nnc2c(=O)[nH]1 [RCB, 2-[2-propoxy-5-(N-methyl-N-isopropylsulphamoyl)-phenyl]-8-azapurin-6-one, reference compound]	–	oral activity of RCB and RCC compared with each other [3]: approximately equiactive orally
CCCOc1ccc(N/C(=C\C(=O)OC)C(=O)OC)cc1-c1nc2[nH]nnc2c(=O)[nH]1 [Compound H, (Z)-2-[5-{1,2-bis(methoxycarbonyl)vinylamino}-2-propoxyphenyl]-8-azapurin-6-one]	15	LD50 at 168 h ([2]; test solution 2% w/v): 410 mg/kg
CCCOc1ccc(N=NC(C(C)=O)C(C)=O)cc1-c1nc2[nH]nnc2c(=O)[nH]1 [J, 2-[5-(2,4-dioxopent-3-ylazo)-2-propoxyphenyl]-8-azapurin-6-one]	10	LD50 at 72 h [4]: > 1000 mg/kg
CCCOc1ccc(NC=C(C#N)C(=O)OCC)cc1-c1nc2[nH]nnc2c(=O)[nH]1 [C, 2-[5-(2-cyano-2-ethoxycarbonylvinylamino)-2-propoxyphenyl]-8-azapurin-6-one]	10	oral activity relative to reference compounds RCB and RCC [3]: over 2.5 times; LD50 at 168 h ([2]; test solution 2% w/v): 290 mg/kg
CCCNC(=O)Nc1ccc(OCCC)c(-c2nc3[nH]nnc3c(=O)[nH]2)c1 [Compound P, 2-[2-propoxy-5-(3-propylureido)phenyl]-8-azapurin-6-one]	2	–
COc1ccc(NC(C)=CC(C)=O)cc1-c1nc2[nH]nnc2c(=O)[nH]1 [Compound I, 2-[5-(1-acetylprop-1-en-2-ylamino)-2-methoxyphenyl]-8-azapurin-6-one]	5	LD50 at 168 h ([2]; test solution 1% w/v): 470 mg/kg
CCCOc1ccc(C(=O)NC(C)(C)C)cc1-c1nc2[nH]nnc2c(=O)[nH]1 [Compound N, 2-(5-N-t-butylcarbamoyl-2-propoxyphenyl)-8-azapurin-6-one]	50	LD50 at 72 h [4]: > 1000 mg/kg
CCCOc1ccc(C(N)=O)cc1-c1nc2[nH]nnc2c(=O)[nH]1 [Compound M, 2-(5-carbamoyl-2-propoxyphenyl)-8-azapurin-6-one]	10	–
CCCNC(=S)Nc1ccc(OCCC)c(-c2nc3[nH]nnc3c(=O)[nH]2)c1 [Compound R, 2-[2-propoxy-5-(3-propyl-2-thioureido)phenyl]-8-azapurin-6-one]	0.2	LD50 at 72 h [4]: > 1000 mg/kg
CCCOc1ccc(NC(=S)NC)cc1-c1nc2[nH]nnc2c(=O)[nH]1 [Compound Q, 2-[5-(3-methyl-2-thioureido)-2-propoxyphenyl]-8-azapurin-6-one]	10	–
CCCOc1ccc(NC(=O)NC(C)C)cc1-c1nc2[nH]nnc2c(=O)[nH]1 [Compound O, 2-[2-propoxy-5-(3-isopropylureido)phenyl]-8-azapurin-6-one]	30	LD50 at 72 h [4]: > 1000 mg/kg
CCCOc1ccc(C(=O)N(CC)CC)cc1-c1nc2[nH]nnc2c(=O)[nH]1 [Compound V, 2-(5-N,N-diethylcarbamoyl-2-propoxyphenyl)-8-azapurin-6-one]	3	–
CCCOc1ccc(-c2nnn[nH]2)cc1-c1nc2[nH]nnc2c(=O)[nH]1 [Compound T, 2-[2-propoxy-5-(tetrazol-5-yl)phenyl]-8-azapurin-6-one]	2	–
CCCOc1ccc(S(=O)(=O)CCC)cc1-c1nc2[nH]nnc2c(=O)[nH]1 [RCC, 2-(2-propoxy-5-propylsulphonylphenyl)-8-azapurin-6-one, reference compound]	–	oral activity of RCB and RCC compared with each other [3]: approximately equiactive orally
CCCOc1ccc(NC=C(C(C)=O)C(C)=O)cc1-c1nc2[nH]nnc2c(=O)[nH]1 [Compound B, 2-[5-(2,2-diacetylvinylamino)-2-propoxyphenyl]-8-azapurin-6-one]	50	LD50 at 168 h ([2]; test solution 1% w/v): 350 mg/kg
CCOC(=O)C(=CNc1ccc(OC)c(-c2nc3[nH]nnc3c(=O)[nH]2)c1)C(=O)OCC [Compound E, 2-[5-{2,2-bis(ethoxycarbonyl)vinylamino}-2-methoxyphenyl]-8-azapurin-6-one]	5	LD50 at 72 h [4]: > 1000 mg/kg; LD50 at 168 h ([2]; test solution 1% w/v): 320 mg/kg
CCCOc1ccc(C(=O)N(C)C(C)C)cc1-c1nc2[nH]nnc2c(=O)[nH]1 [W, 2-(5-N-methyl-N-isopropylcarbamoyl-2-propoxyphenyl)-8-azapurin-6-one]	5	–
CCCOc1ccc(N=NC(C(=O)OCC)C(=O)OCC)cc1-c1nc2[nH]nnc2c(=O)[nH]1 [K, 2-[5-{bis(ethoxycarbonyl)methylazo}-2-propoxyphenyl]-8-azapurin-6-one]	2.5	LD50 at 168 h ([2]; test solution 2% w/v): 255 mg/kg
COc1ccc(NC=C(C(C)=O)C(C)=O)cc1-c1nc2[nH]nnc2c(=O)[nH]1 [F, 2-[5-(2,2-diacetylvinylamino)-2-methoxyphenyl]-8-azapurin-6-one]	5	–
CCCOc1ccc(C#N)cc1-c1nc2[nH]nnc2c(=O)[nH]1 [Compound L, 2-(5-cyano-2-propoxyphenyl)-8-azapurin-6-one]	1	–
CCCOc1ccc(NC=C(C(C)=O)C(=O)OCC)cc1-c1nc2[nH]nnc2c(=O)[nH]1 [D, 2-[5-(2-acetyl-2-ethoxycarbonylvinylamino)-2-propoxyphenyl]-8-azapurin-6-one]	10	LD50 at 168 h ([2]; test solution 2% w/v): 270 mg/kg
CCCOc1ccc(NC=C(C(=O)OCC)C(=O)OCC)cc1-c1nc2[nH]nnc2c(=O)[nH]1 [Compound A, 2-[5-{2,2-bis(ethoxycarbonyl)vinylamino}-2-propoxyphenyl]-8-azapurin-6-one]	5	oral activity relative to reference compounds RCB and RCC [3]: over 5 times; vomiting (emetic activity) (beagle dogs; 200 mg/kg): caused vomiting in none of the four dogs

— patent publication US4167568A, “8-Azapurin-6-one derivatives” (May & Baker Limited, priority 1976, dated 1979)
